{"source": "patent US9994535B2", "about": "“Desferrithiocin polyether analogues” (University of Florida Research Foundation, Inc., priority 2005, dated 2018)", "type_in_all_cases": "in vivo", "key": {"[1]": {"assay": "Tissue and plasma concentrations upon subcutaneous administration to rats", "details": "rat", "experimental": "Tissue Distribution of a Polyether-Substituted (S)-4′-Hydroxydesazadesferrithiocin Analogue [(S)-4′-(HO)-DADFT-PE] Upon Subcutaneous Administration to Rats\nA measurement was made assessing (S)-4′-(HO)-DADFT-PE and (S)-4′-(HO)-DADFT tissue and plasma concentrations upon subcutaneous administration at times from 2-8 h post dosing. The rats were given this compound subcutaneously at 300 μmol/kg. The tissue and plasma level were obtained as described in Bergeron et al. J Med Chem. 48:821-831 (2005), the entire contents of which are incorporated herein by reference."}, "[2]": {"assay": "Iron clearing efficiency in non-iron overloaded, bile duct cannulated rat model", "details": "for Efficiency (%) (iron clearing efficiency): 300 μmol/kg, 24 hour iron excretion, 2:1 ligand-iron complex", "experimental": "Iron Clearing Efficiency of Iron Chelators in a Non-Iron Overloaded, Bile Duct Cannulated Rat Model\nStudies were performed in the non-iron overloaded, bile duct cannulated rodent model with the compounds shown below.\nBriefly, male Sprague-Dawley rats averaging 450 g were housed in Nalgene plastic metabolic cages during the experimental period and given free access to water. The animals were anesthetized using sodium pentobarbital (55 mg/kg) administered intraperitoneally. The bile duct was cannulated using 22-gauge polyethylene tubing. The cannula was inserted into the duct about 1 cm from the duodenum and tied snugly in place. After threading through the shoulder, the cannula was passed from the rat to the swivel inside a metal torque-transmitting tether, which was attached to a rodent jacket around the animal's chest. The cannula was directed from the rat to a Gilson microfraction collector (Middleton, Wis.) by a fluid swivel mounted above the metabolic cage. Three hour bile samples were continuously collected for a minimum of 24 hours up to 48 hours. However, the efficiency calculations are based on the 24 hour iron excretion. The efficiency of each chelator was calculated on the basis of a 2:1 ligand-iron complex. The efficiencies in the rodent model were calculated by subtracting the iron excretion of control animals from the iron excretion of treated animals. This number was then divided by the theoretical output; the result is expressed as a percentage (Bergeron, R. J., et al., J. Med Chem. 42:95-108 (1999) the entire contents of which are incorporated herein by reference). The urine sample was taken at 24 hours and handled as previously described in Bergeron, R. J., et al., J. Med. Chem. 34:2072-2078 (1991), the entire contents of which are incorporated herein by reference."}, "[3]": {"assay": "Iron clearing efficiency in iron-overloaded Cebus apella monkey model", "details": "primates, given either p.o. or s.c.", "experimental": "Iron Chelators in a Cebus apella Monkey Model Studies were performed in the iron-overloaded monkey model with the compounds shown below: The protocol used can be found in Bergeron, R. J. et al., “Methoxylation of Desazadesferrithiocin Analogues: Enhanced Iron Clearing Efficiency,” J. Med. Chem. 46:1470-1477 (2003), the contents of which are incorporated herein by reference. Briefly, the monkeys were iron overloaded with iron dextran administered intravenously to result in an iron loading of about 500 mg per kg of body weight. At least 20 half-lives, 60 days, elapsed before the animals were used in experiments evaluating iron chelators. Fecal and urine samples were collected at 24 hour intervals beginning 4 days prior to the administration of an iron chelator and continued for 5 days after the chelator was administered. Iron concentrations in stool and urine were determined by flame atomic absorption spectroscometry. Iron chelator efficiency was calculated by dividing the net iron clearance [total iron excretion (stool plus urine) minus background] by the theoretical iron clearance and multiplying by 100. The theoretical clearance of the iron chelator was generated on the basis of a 2:1 ligand/iron complex."}}}
{"smiles": "COCCOCCOCCOc1ccc(C2=N[C@@](C)(C(=O)O)CS2)c(O)c1", "note": "[(S)-4′-(HO)-DADFT-PE, (S)-4,5-Dihydro-2-[2-hydroxy-4-[2-[2-(2-methoxyethoxy)ethoxy]ethoxy]phenyl]-4-methyl-4-thiazolecarboxylic Acid]", "values": [{"measurement": "Tissue distribution (where most is found)", "setting": "[1]; sc", "result": "found in the liver, kidney and pancreas"}, {"measurement": "Brain concentration of administered compound", "setting": "[1]; sc 300 μmol/kg, 2 h", "result": "0.5 ± 0.9", "unit": "nmol/g wet wt"}, {"measurement": "Brain concentration of administered compound", "setting": "[1]; sc 300 μmol/kg, 4 h", "result": "0.0 ± 0.0", "unit": "nmol/g wet wt"}, {"measurement": "Brain concentration of administered compound", "setting": "[1]; sc 300 μmol/kg, 6 h", "result": "0.0 ± 0.0", "unit": "nmol/g wet wt"}, {"measurement": "Brain concentration of administered compound", "setting": "[1]; sc 300 μmol/kg, 8 h", "result": "0.0 ± 0.0", "unit": "nmol/g wet wt"}, {"measurement": "Heart concentration of administered compound", "setting": "[1]; sc 300 μmol/kg, 2 h", "result": "9.2 ± 2.6", "unit": "nmol/g wet wt"}, {"measurement": "Heart concentration of administered compound", "setting": "[1]; sc 300 μmol/kg, 4 h", "result": "5.3 ± 1.4", "unit": "nmol/g wet wt"}, {"measurement": "Heart concentration of administered compound", "setting": "[1]; sc 300 μmol/kg, 6 h", "result": "0.0 ± 0.0", "unit": "nmol/g wet wt"}, {"measurement": "Heart concentration of administered compound", "setting": "[1]; sc 300 μmol/kg, 8 h", "result": "2.0 ± 1.7", "unit": "nmol/g wet wt"}, {"measurement": "Kidney concentration of administered compound", "setting": "[1]; sc 300 μmol/kg, kidney, 2 h", "result": "41.1 ± 3.0", "unit": "nmol/g wet wt"}, {"measurement": "Kidney concentration of administered compound", "setting": "[1]; sc 300 μmol/kg, kidney, 4 h", "result": "33.7 ± 13.5", "unit": "nmol/g wet wt"}, {"measurement": "Kidney concentration of administered compound", "setting": "[1]; sc 300 μmol/kg, kidney, 6 h", "result": "13.7 ± 2.1", "unit": "nmol/g wet wt"}, {"measurement": "Kidney concentration of administered compound", "setting": "[1]; sc 300 μmol/kg, kidney, 8 h", "result": "7.4 ± 2.1", "unit": "nmol/g wet wt"}, {"measurement": "Liver concentration of administered compound", "setting": "[1]; sc 300 μmol/kg, 2 h", "result": "131.6 ± 32.2", "unit": "nmol/g wet wt"}, {"measurement": "Liver concentration of administered compound", "setting": "[1]; sc 300 μmol/kg, 4 h", "result": "66.9 ± 12.4", "unit": "nmol/g wet wt"}, {"measurement": "Liver concentration of administered compound", "setting": "[1]; sc 300 μmol/kg, 6 h", "result": "34.3 ± 1.5", "unit": "nmol/g wet wt"}, {"measurement": "Liver concentration of administered compound", "setting": "[1]; sc 300 μmol/kg, 8 h", "result": "25.4 ± 4.6", "unit": "nmol/g wet wt"}, {"measurement": "Pancreas concentration of administered compound", "setting": "[1]; sc 300 μmol/kg, 2 h", "result": "29.6 ± 24.8", "unit": "nmol/g wet wt"}, {"measurement": "Pancreas concentration of administered compound", "setting": "[1]; sc 300 μmol/kg, 4 h", "result": "12.6 ± 5.2", "unit": "nmol/g wet wt"}, {"measurement": "Pancreas concentration of administered compound", "setting": "[1]; sc 300 μmol/kg, 6 h", "result": "4.6 ± 1.6", "unit": "nmol/g wet wt"}, {"measurement": "Pancreas concentration of administered compound", "setting": "[1]; sc 300 μmol/kg, 8 h", "result": "2.7 ± 2.6", "unit": "nmol/g wet wt"}, {"measurement": "concentration at 2 h", "setting": "[1]; sc 300 μmol/kg, plasma, 2 h, read-out: Plasma concentration of administered compound", "result": "16.2 ± 4.2", "unit": "µM"}, {"measurement": "concentration at 4 h", "setting": "[1]; sc 300 μmol/kg, plasma, 4 h, read-out: Plasma concentration of administered compound", "result": "5.3 ± 2.6", "unit": "µM"}, {"measurement": "concentration at 6 h", "setting": "[1]; sc 300 μmol/kg, plasma, 6 h, read-out: Plasma concentration of administered compound", "result": "1 ± 1", "unit": "µM"}, {"measurement": "concentration at 8 h", "setting": "[1]; sc 300 μmol/kg, plasma, 8 h, read-out: Plasma concentration of administered compound", "result": 0, "unit": "nM"}, {"measurement": "Metabolism back to (S)-4-(HO)DADFT", "setting": "[1]; sc, any tissue", "result": "very little metabolism"}, {"measurement": "Kidney level compared with (S)-4-(HO)-DADFT", "setting": "[1]; sc, kidney, any time point", "result": "much less of the PE in the kidney"}, {"measurement": "Efficiency (%) (iron clearing efficiency)", "setting": "[2]; p.o.", "result": "6.6 ± 1.9", "unit": "%"}, {"measurement": "Efficiency (%) (iron clearing efficiency)", "setting": "[2]; s.c.", "result": "8.7 ± 2.8", "unit": "%"}, {"measurement": "Iron clearing efficiency compared with parent drug (S)-4-(HO)-DADFT", "setting": "[2]; same micromole per kilogram dose", "result": "work better than the parent drug"}, {"measurement": "Iron clearing efficiency compared with (S)-4′-(HO)-DADFT", "setting": "[3]", "result": "at least as efficient as (S)-4′-(HO)-DADFT"}]}
